# In US9226916B2, “Pyrrolidine derivatives” (HOFFMANN-LA ROCHE INC., priority 2009, dated 2016):
# Like-named read-outs stand apart in the source and are kept apart here.
# Target: T1, recombinant human NK3 receptor (Homo sapiens, UniProt P29371)
# T1 construct: expressed in transfected cells; host or cells: HEK293 cells, transient expression; membranes
# T1 sequence (P29371 1-465): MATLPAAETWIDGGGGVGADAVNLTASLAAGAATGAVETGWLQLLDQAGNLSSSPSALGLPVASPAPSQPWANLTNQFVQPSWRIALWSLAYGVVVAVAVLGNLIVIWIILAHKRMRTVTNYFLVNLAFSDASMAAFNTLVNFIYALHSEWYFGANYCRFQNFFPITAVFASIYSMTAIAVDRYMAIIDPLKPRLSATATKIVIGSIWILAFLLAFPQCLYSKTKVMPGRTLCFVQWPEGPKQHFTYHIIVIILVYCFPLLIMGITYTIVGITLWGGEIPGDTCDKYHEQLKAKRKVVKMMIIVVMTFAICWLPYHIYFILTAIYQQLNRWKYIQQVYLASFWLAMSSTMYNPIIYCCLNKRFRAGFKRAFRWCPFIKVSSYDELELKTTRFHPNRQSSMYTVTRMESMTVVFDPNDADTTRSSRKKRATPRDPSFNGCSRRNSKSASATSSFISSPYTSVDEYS
# Assay: [3H]SR142801 competition binding assay
"Ki (hNK-3 receptor affinity, membranes from HEK293 cells transiently expressing recombinant human NK3 receptor, [3H]SR142801, Cheng-Prussoff, read-out: Data Ki) [nM]",Compound,Ki [nM]
,"CN(C(=O)O[C@H]1C[C@H]2CC[C@@H]1C2)[C@H]1CN(C(=O)C2CCN(C(=O)C3(C)CC3)CC2)C[C@@H]1c1ccc(Cl)c(Cl)c1 (mixture of isomers) [Example 68, {(3R,4S)-4-(3,4-Dichloro-phenyl)-1-[1-(1-methyl-cyclopropanecarbonyl)-piperidine-4-carbonyl]-pyrrolidin-3-yl}-methyl-carbamic acid (1R,2S,4S)-bicyclo[2.2.1]hept-2-yl ester and {(3S,4R)-4-(3,4-Dichloro-phenyl)-1-[1-(1-methyl-cyclopropanecarbonyl)-piperidine-4-carbonyl]-pyrrolidin-3-yl}-methyl-carbamic acid (1R,2S,4S)-bicyclo[2.2.1]hept-2-yl ester]",62.6
,"CN(C(=O)O[C@@H]1C[C@H]2CC[C@@H]1C2)[C@H]1CN(C(=O)C2CCN(C(=O)C3(C)CC3)CC2)C[C@@H]1c1ccc(Cl)c(Cl)c1 (mixture of isomers) [Example 69, {(3R,4S)-4-(3,4-Dichloro-phenyl)-1-[1-(1-methyl-cyclopropanecarbonyl)-piperidine-4-carbonyl]-pyrrolidin-3-yl}-methyl-carbamic acid (1R,2R,4S)-bicyclo[2.2.1]hept-2-yl ester and {(3S,4R)-4-(3,4-Dichloro-phenyl)-1-[1-(1-methyl-cyclopropanecarbonyl)-piperidine-4-carbonyl]-pyrrolidin-3-yl}-methyl-carbamic acid (1R,2R,4S)-bicyclo[2.2.1]hept-2-yl ester]",7.6
,"CN(C(=O)Oc1ccc(F)cc1)[C@H]1CN(C(=O)C2CCN(C(=O)C3(C)CC3)CC2)C[C@@H]1c1ccc(Cl)c(Cl)c1 (racemic) [Example 2, rac-{(3R,4S)-4-(3,4-Dichloro-phenyl)-1-[1-(1-methyl-cyclopropanecarbonyl)-piperidine-4-carbonyl]-pyrrolidin-3-yl}-methyl-carbamic acid 4-fluoro-phenyl ester]",0.4
,"CN(C(=O)Oc1ccc(F)cc1)[C@H]1CN(C(=O)C2CCN(CC3CC3)CC2)C[C@@H]1c1ccc(Cl)c(Cl)c1 (racemic) [Example 4, rac-[(3R,4S)-1-(1-Cyclopropylmethyl-piperidine-4-carbonyl)-4-(3,4-dichloro-phenyl)-pyrrolidin-3-yl]-methyl-carbamic acid 4-fluoro-phenyl ester]",1.8
,"CN(C(=O)Oc1ccccc1)[C@H]1CN(C(=O)C2CCN(CC3CC3)CC2)C[C@@H]1c1ccc(Cl)c(Cl)c1 (racemic) [Example 7, rac-[(3R,4S)-1-(1-Cyclopropylmethyl-piperidine-4-carbonyl)-4-(3,4-dichloro-phenyl)-pyrrolidin-3-yl]-methyl-carbamic acid phenyl ester]",9.6
,"Cc1ccc(OC(=O)N(C)[C@H]2CN(C(=O)C3CCN(CC4CC4)CC3)C[C@@H]2c2ccc(Cl)c(Cl)c2)cc1 (racemic) [Example 8, rac-[(3R,4S)-1-(1-Cyclopropylmethyl-piperidine-4-carbonyl)-4-(3,4-dichloro-phenyl)-pyrrolidin-3-yl]-methyl-carbamic acid p-tolyl ester]",4
,"COc1ccc(OC(=O)N(C)[C@H]2CN(C(=O)C3CCN(CC4CC4)CC3)C[C@@H]2c2ccc(Cl)c(Cl)c2)cc1 (racemic) [Example 9, rac-[(3R,4S)-1-(1-Cyclopropylmethyl-piperidine-4-carbonyl)-4-(3,4-dichloro-phenyl)-pyrrolidin-3-yl]-methyl-carbamic acid 4-methoxy-phenyl ester]",13.6
,"CN(C(=O)Oc1ccc(Cl)cc1)[C@H]1CN(C(=O)C2CCN(CC3CC3)CC2)C[C@@H]1c1ccc(Cl)c(Cl)c1 (racemic) [Example 10, rac-[(3R,4S)-1-(1-Cyclopropylmethyl-piperidine-4-carbonyl)-4-(3,4-dichloro-phenyl)-pyrrolidin-3-yl]-methyl-carbamic acid 4-chloro-phenyl ester]",1.5
,"CCCCOC(=O)N(C)[C@H]1CN(C(=O)C2CCN(CC3CC3)CC2)C[C@@H]1c1ccc(Cl)c(Cl)c1 (racemic) [Example 11, rac-[(3R,4S)-1-(1-Cyclopropylmethyl-piperidine-4-carbonyl)-4-(3,4-dichloro-phenyl)-pyrrolidin-3-yl]-methyl-carbamic acid butyl ester]",27.1
,"CN(C(=O)Oc1ccc(Cl)cc1)[C@H]1CN(C(=O)C2CCN(C(=O)C3(C)CC3)CC2)C[C@@H]1c1ccc(Cl)c(Cl)c1 (racemic) [Example 12, rac-{(3R,4S)-4-(3,4-Dichloro-phenyl)-1-[1-(1-methyl-cyclopropanecarbonyl)-piperidine-4-carbonyl]-pyrrolidin-3-yl}-methyl-carbamic acid 4-chloro-phenyl ester]",0.6
,"CN(C(=O)Oc1ccccc1)[C@H]1CN(C(=O)C2CCN(C(=O)C3(C)CC3)CC2)C[C@@H]1c1ccc(Cl)c(Cl)c1 (racemic) [Example 13, rac-{(3R,4S)-4-(3,4-Dichloro-phenyl)-1-[1-(1-methyl-cyclopropanecarbonyl)-piperidine-4-carbonyl]-pyrrolidin-3-yl}-methyl-carbamic acid phenyl ester]",2
,"Cc1ccc(OC(=O)N(C)[C@H]2CN(C(=O)C3CCN(C(=O)C4(C)CC4)CC3)C[C@@H]2c2ccc(Cl)c(Cl)c2)cc1 (racemic) [Example 14, rac-{(3R,4S)-4-(3,4-Dichloro-phenyl)-1-[1-(1-methyl-cyclopropanecarbonyl)-piperidine-4-carbonyl]-pyrrolidin-3-yl}-methyl-carbamic acid p-tolyl ester]",1.2
,"COc1ccc(OC(=O)N(C)[C@H]2CN(C(=O)C3CCN(C(=O)C4(C)CC4)CC3)C[C@@H]2c2ccc(Cl)c(Cl)c2)cc1 (racemic) [Example 15, rac-{(3R,4S)-4-(3,4-Dichloro-phenyl)-1-[1-(1-methyl-cyclopropanecarbonyl)-piperidine-4-carbonyl]-pyrrolidin-3-yl}-methyl-carbamic acid p-methoxyphenyl ester]",2.5
,"CN(C(=O)OCC(C)(C)C)[C@H]1CN(C(=O)C2CCN(C(=O)C3(C)CC3)CC2)C[C@@H]1c1ccc(Cl)c(Cl)c1 (racemic) [Example 22, rac-{(3R,4S)-4-(3,4-Dichloro-phenyl)-1-[1-(1-methyl-cyclopropanecarbonyl)-piperidine-4-carbonyl]-pyrrolidin-3-yl}-methyl-carbamic acid 2,2-dimethyl-propyl ester]",16.9
,"CN(C(=O)OCC1CC1)[C@H]1CN(C(=O)C2CCN(C(=O)C3(C)CC3)CC2)C[C@@H]1c1ccc(Cl)c(Cl)c1 (racemic) [Example 24, rac-{(3R,4S)-4-(3,4-Dichloro-phenyl)-1-[1-(1-methyl-cyclopropanecarbonyl)-piperidine-4-carbonyl]-pyrrolidin-3-yl}-methyl-carbamic acid cyclopropylmethyl ester]",33.5
5.4,"CN(C(=O)OCCC1CC1)[C@H]1CN(C(=O)C2CCN(C(=O)C3(C)CC3)CC2)C[C@@H]1c1ccc(Cl)c(Cl)c1 (racemic) [Example 25, rac-{(3R,4S)-4-(3,4-Dichloro-phenyl)-1-[1-(1-methyl-cyclopropanecarbonyl)-piperidine-4-arbonyl]-pyrrolidin-3-yl}-methyl-carbamic acid 2-cyclopropyl-ethyl ester]",
,"CN(C(=O)Oc1ccc(F)cc1)[C@H]1CN(C(=O)C2CCN(C(=O)C3(C)CC3)CC2)C[C@@H]1c1ccc(Cl)cc1 (racemic) [Example 26, rac-{(3R,4S)-4-(4-Chloro-phenyl)-1-[1-(1-methyl-cyclopropanecarbonyl)-piperidine-4-carbonyl]-pyrrolidin-3-yl}-methyl-carbamic acid 4-fluoro-phenyl ester]",2.9
,"CCCCOC(=O)N(C)[C@H]1CN(C(=O)C2CCN(C(=O)C3(C)CC3)CC2)C[C@@H]1c1ccc(Cl)cc1 (racemic) [Example 27, rac-{(3R,4S)-4-(4-Chloro-phenyl)-1-[1-(1-methyl-cyclopropanecarbonyl)-piperidine-4-carbonyl]-pyrrolidin-3-yl}-methyl-carbamic acid butyl ester]",30.7
,"CN(C(=O)OCCC(C)(C)C)[C@H]1CN(C(=O)C2CCN(C(=O)C3(C)CC3)CC2)C[C@@H]1c1ccc(Cl)c(Cl)c1 (racemic) [Example 30, rac-{(3R,4S)-4-(3,4-Dichloro-phenyl)-1-[1-(1-methyl-cyclopropanecarbonyl)-piperidine-4-carbonyl]-pyrrolidin-3-yl}-methyl-carbamic acid 3,3-dimethyl-butyl ester]",10.3
,"CN(C(=O)OCC1CCOCC1)[C@H]1CN(C(=O)C2CCN(C(=O)C3(C)CC3)CC2)C[C@@H]1c1ccc(Cl)c(Cl)c1 (racemic) [Example 31, rac-{(3R,4S)-4-(3,4-Dichloro-phenyl)-1-[1-(1-methyl-cyclopropanecarbonyl)-piperidine-4-carbonyl]-pyrrolidin-3-yl}-methyl-carbamic acid tetrahydro-pyran-4-ylmethyl ester]",11.6
,"CN(C(=O)OCC1CCCC1)[C@H]1CN(C(=O)C2CCN(C(=O)C3(C)CC3)CC2)C[C@@H]1c1ccc(Cl)c(Cl)c1 (racemic) [Example 32, rac-{(3R,4S)-4-(3,4-Dichloro-phenyl)-1-[1-(1-methyl-cyclopropanecarbonyl)-piperidine-4-carbonyl]-pyrrolidin-3-yl}-methyl-carbamic acid cyclopentylmethyl ester]",1.4
